In US20150258059A1, “ANTIMICROBIAL AND RADIOPROTECTIVE COMPOUNDS” (BioDiem, Ltd, priority 2001, published 2015):
Converted amounts (≈) assume the structure as drawn. Read-outs that look alike come from different tables or passages of the source. Marks after values point to notes of the source that are not given here.

Key:
[1] = test system: Rhizopus stoloniefer; test: M38-P microdilution MIC/MFC; type: cell-based; settings: Table 16, 48 h, 35° C.
[2] = test system: Salmonella typhimurium M-727; test: Sensitivity of strains: suppression of growth; type: cell-based; settings: Compound (1) 1.0%; antibiotics disc method
[3] = test system: Proteus vulgaris; test: microbe, parasite or virus in culture; type: cell-based; settings: for MIC: Proteus vulgaris
[4] = test system: Alkaligenes sp. B-689; test: Sensitivity of strains: suppression of growth; type: cell-based; settings: Compound (1) 1.0%; antibiotics disc method
[5] = test system: Klebsiella pneumoniae M-A21; test: Sensitivity of strains: suppression of growth; type: cell-based; settings: Compound (1) 1.0%; antibiotics disc method
[6] = test system: Salmonella typhimurium museum strain 727; test: Impregnated agar serial double dilutions; settings: meat peptone agar
[7] = test system: Rhizopus stolonifer; test: microbe, parasite or virus in culture; type: cell-based; settings: for MIC: Rhizopus stolonifer
[8] = test system: Bacteroides fragilis; test: NCCLS broth microdilution MIC/MBC; type: cell-based; settings: for MIC: Bacteroides fragilis
[9] = test system: F. chlamydosporum; test: M38-P microdilution MIC/MFC; type: cell-based; settings: Table 16, 48 h, 35° C.
[10] = test system: Proteus mirabilis; test: NCCLS broth microdilution MIC/MBC; type: cell-based; settings: for MIC: Proteus mirabilis
[11] = test system: C. laniolis 54/6; test: MIC/MMC against clinical strains of Campylobacter spp.; settings: Table 18; clinical strain isolated from humans
[12] = test system: S. pyogenes; test: Broth dilution bioassay, low inoculum; type: cell-based; settings: in MHB
[13] = test system: Trichophyton; test: Sensitivity of pathogenic fungi; type: cell-based; settings: Inoculation 10^2
[14] = test system: Candida albicans; test: M38-P microdilution MIC/MFC; type: cell-based; settings: Table 16, 24 h, 35° C.
[15] = test system: Bacillus subtilis; test: Stability of stock solutions on storage, potency by MIC/MBC; type: cell-based
[16] = test system: Epidermophyton floccosum; test: M38-P microdilution MIC/MFC; type: cell-based; settings: Table 16, Dermatophytes
[17] = test system: Aspergillus fumigatus asexual exospores; test: Sporicidal activity; type: cell-based; settings: 512 μg/mL in water+Tween-20; 24 hrs and 6 hrs
Description: Aspergillus fumigatus asexual exospores
Compound (1) in water+Tween-20® was tested for sporicidal activity up to 24 hrs.

[18] = test system: Conditional pathogenic enterobacteria gram-negative aerobic bacilli; type: cell-based; also: key: + sensitive strains; + moderately sensitive strains; − stable strains
[19] = test system: M. catarrhalis; test: Antibacterial activity in the presence of blood, macrodilution; type: cell-based; settings: for MIC: Moraxella catarrhalis
[20] = test system: Bacillus subtilis RMIT; test: NCCLS broth microdilution MIC/MBC; type: cell-based; settings: for MIC: Bacillus subtilis
[21] = test system: Salmonella paratyphi M-16469; test: Agar diffusion assay; type: cell-based
[22] = test system: skin wounds infected by Streptococcus and Staphylococcus; test: Treatment of infected wounds, human volunteers; type: in vivo; settings: 0.1% ointment for 3 days
Description: Human volunteers suffering from skin wounds infected by Streptococcus and Staphylococcus were treated with 0.1% Compounds (1) and (2) in an ointment base of vaseline, sheep fat, and sulfoxide.

[23] = test system: Rhodotorula rubra; test: microbe, parasite or virus in culture; type: cell-based; settings: for MIC: Rhodotorula
[24] = before exposure, MHB, read-out: Standard MIC Initial
[25] = Table 20, […], after 12 weeks continuous exposure, read-out: MIC Final
[26] = Table 20, […], parent strain, read-out: MIC Initial
[27] = stock 512 μg/mL stored 4° C., 0 weeks
[28] = stock 512 μg/mL stored 4° C., 2 weeks
[29] = stock 512 μg/mL stored 4° C., 4 weeks
[30] = stock 512 μg/mL stored 4° C., 6 weeks
[31] = stock 512 μg/mL stored 4° C., 8 weeks
[32] = stock 512 μg/mL stored 4° C., 10 weeks
[33] = stock 512 μg/mL stored 4° C., 12 weeks
[34] = stock 512 μg/mL stored RT, 0 weeks
[35] = stock 512 μg/mL stored RT, 2 weeks
[36] = stock 512 μg/mL stored RT, 4 weeks
[37] = stock 512 μg/mL stored RT, 6 weeks
[38] = stock 512 μg/mL stored RT, 8 weeks
[39] = stock 512 μg/mL stored RT, 10 weeks
[40] = stock 512 μg/mL stored RT, 12 weeks
[41] = stock 512 μg/mL stored −20° C., 0 weeks
[42] = stock 512 μg/mL stored −20° C., 2 weeks
[43] = stock 512 μg/mL stored −20° C., 4 weeks
[44] = stock 512 μg/mL stored −20° C., 6 weeks
[45] = stock 512 μg/mL stored −20° C., 8 weeks
[46] = stock 512 μg/mL stored −20° C., 10 weeks
[47] = stock 512 μg/mL stored −20° C., 12 weeks

SMILES: C/C(=C\c1ccc2c(c1)OCO2)[N+](=O)[O-] [Compound (1)]
- MIC ([1]; Rhizopus, read-out: MIC): 4 µg/mL (≈ 19.3 µM)
- MMC [1]: 16 µg/mL
- Suppression of Growth (+/−) [2]: +
- MIC ([3]; after 12 weeks continuous exposure, read-out: Standard MIC Final): 128 µg/mL (≈ 618 µM)
- MIC [3, 24]: 128 µg/mL (≈ 618 µM)
- 7-Day MIC Range ([3]; Range to Week 12, No Rising Trend): 64 to 256 µg/mL
- Suppression of Growth (+/−) [4]: +
- Suppression of Growth (+/−) [5]: +
- Minimal % Compound (1) giving complete inhibition of test culture [6]: 0.5%
- MIC [7, 25]: 16 µg/mL (≈ 77.2 µM)
- MIC [7, 26]: 4 µg/mL (≈ 19.3 µM)
- MIC [7, 24]: 4 µg/mL (≈ 19.3 µM)
- 7-Day MIC Range ([7]; to Wk 5): 4-32 to Wk 5 μg/mL
- MIC ([8]; Table 9, 48 h): 16 µg/mL (≈ 77.2 µM)
- MIC ([8]; Table 17, 2 or 3 replicates): 16 µg/mL (≈ 77.2 µM)
- MMC ([8]; Table 9, 48 h): 32 µg/mL
- MMC ([8]; Table 17, 2 or 3 replicates): 32 µg/mL
- MMC [9]: 8 µg/mL
- MIC ([9]; read-out: MIC): 8 µg/mL (≈ 38.6 µM)
- MIC [10]: 256 µg/mL (≈ 1240 µM)
- MIC ([10]; 24 h): 256 µg/mL (≈ 1240 µM)
- MMC ([10]; Table 9, 35° C., 24 hours): >512 µg/mL
- MMC ([10]; Table 17, 2 or 3 replicates): >512 µg/mL
- MMC [11]: 2
- concentration inhibiting low inoculum [12]: 1 µg/mL
- Number of microbes: Growth ([13]; 0.1%): 0
- Number of microbes: Retardation ([13]; 0.1%): 10^7
- Number of microbes: Growth ([13]; 0.5%): 0
- Number of microbes: Retardation ([13]; 0.5%): 10^7
- Number of microbes: Growth ([13]; 2.0%): 0
- Number of microbes: Retardation ([13]; 2.0%): 10^7
- MIC ([14]; Candida albicans, read-out: MIC): 8 µg/mL (≈ 38.6 µM)
- MMC [14]: 8 µg/mL
- stability of dilute solutions on storage ([15]; 12 weeks at 4° C. and −20° C.): very stable
- MBC [15, 27]: 8 µg/mL (≈ 38.6 µM)
- MIC [15, 27]: 4 µg/mL (≈ 19.3 µM)
- MBC [15, 28]: 8 µg/mL (≈ 38.6 µM)
- MIC [15, 28]: 4 µg/mL (≈ 19.3 µM)
- MBC [15, 29]: 16 µg/mL (≈ 77.2 µM)
- MIC [15, 29]: 4 µg/mL (≈ 19.3 µM)
- MBC [15, 30]: 16 µg/mL (≈ 77.2 µM)
- MIC [15, 30]: 4 µg/mL (≈ 19.3 µM)
- MBC [15, 31]: 16 µg/mL (≈ 77.2 µM)
- MIC [15, 31]: 4 µg/mL (≈ 19.3 µM)
- MBC [15, 32]: 16 µg/mL (≈ 77.2 µM)
- MIC [15, 32]: 4 µg/mL (≈ 19.3 µM)
- MBC [15, 33]: 16 µg/mL (≈ 77.2 µM)
- MIC [15, 33]: 4 µg/mL (≈ 19.3 µM)
- MBC [15, 34]: 8 µg/mL (≈ 38.6 µM)
- MIC [15, 34]: 4 µg/mL (≈ 19.3 µM)
- MBC [15, 35]: 8 µg/mL (≈ 38.6 µM)
- MIC [15, 35]: 4 µg/mL (≈ 19.3 µM)
- MBC [15, 36]: 8 µg/mL (≈ 38.6 µM)
- MIC [15, 36]: 4 µg/mL (≈ 19.3 µM)
- MBC [15, 37]: 16 µg/mL (≈ 77.2 µM)
- MIC [15, 37]: 4 µg/mL (≈ 19.3 µM)
- MBC [15, 38]: 16 µg/mL (≈ 77.2 µM)
- MIC [15, 38]: 8 µg/mL (≈ 38.6 µM)
- MBC [15, 39]: 16 µg/mL (≈ 77.2 µM)
- MIC [15, 39]: 8 µg/mL (≈ 38.6 µM)
- MBC [15, 40]: 16 µg/mL (≈ 77.2 µM)
- MIC [15, 40]: 8 µg/mL (≈ 38.6 µM)
- MBC [15, 41]: 8 µg/mL (≈ 38.6 µM)
- MIC [15, 41]: 4 µg/mL (≈ 19.3 µM)
- MBC [15, 42]: 8 µg/mL (≈ 38.6 µM)
- MIC [15, 42]: 4 µg/mL (≈ 19.3 µM)
- MBC [15, 43]: 16 µg/mL (≈ 77.2 µM)
- MIC [15, 43]: 4 µg/mL (≈ 19.3 µM)
- MBC [15, 44]: 16 µg/mL (≈ 77.2 µM)
- MIC [15, 44]: 4 µg/mL (≈ 19.3 µM)
- MBC [15, 45]: 16 µg/mL (≈ 77.2 µM)
- MIC [15, 45]: 4 µg/mL (≈ 19.3 µM)
- MBC [15, 46]: 16 µg/mL (≈ 77.2 µM)
- MIC [15, 46]: 4 µg/mL (≈ 19.3 µM)
- MBC [15, 47]: 16 µg/mL (≈ 77.2 µM)
- MIC [15, 47]: 4 µg/mL (≈ 19.3 µM)
- MIC ([16]; Epidermophyton floccosum): 0.5 µg/mL (≈ 2.41 µM)
- MMC [16]: 16 µg/mL
- sporicidal activity [17]: killed A. fumigatus exospores at 24 hrs but not 6 hrs
- Suppression of Growth (+/−) [18]: +
- MMC ([19]; 5% blood): 8 µg/mL
- MMC ([19]; 10% plasma): 8 µg/mL
- MIC ([19]; 5% blood): 4 µg/mL
- MIC ([19]; 10% plasma): 8 µg/mL
- MIC ([19]; — (no plasma or blood)): 32 µg/mL
- MIC ([20]; Table 9, 35° C., 24 hours): 16 µg/mL (≈ 77.2 µM)
- MIC ([20]; Table 17, 2 or 3 replicates): 16 µg/mL (≈ 77.2 µM)
- MMC ([20]; Table 9, 35° C., 24 hours): 16 µg/mL
- MMC ([20]; Table 17, 2 or 3 replicates): 16 µg/mL
- Diameter of zone of Growth inhibition ([21]; Concentration in disc 0.1%): 28# mm
- Diameter of zone of Growth inhibition ([21]; Concentration in disc 1.0%): 30# mm
- Diameter of zone of Growth inhibition ([21]; Concentration in disc 2.0%): 36# mm
- clearing of infected wound [22]: cleared the wound completely of pus
- MIC [23, 25]: 16 µg/mL (≈ 77.2 µM)
- MIC [23, 26]: 8 µg/mL (≈ 38.6 µM)
- MIC [23, 24]: 8 µg/mL (≈ 38.6 µM)
- 7-Day MIC Range ([23]; to Wk 5): 8-32 to Wk 5 μg/mL
